Measured values: US9249129B2, “Morpholino substituted urea derivatives as mTOR inhibitors” (CELLZOME LIMITED, priority 2010, dated 2016)

Tests used:
Experiment in all cases: kinobeads assay with mass spectrometry detection of kinases (kinase selectivity profile)
Assay type in all cases: binding
kinases (kinome) [1] = biological target: T1, kinases (kinome) (Homo sapiens, UniProt Q15759); details: p38b (CMGC), IPI00019473
T1 construct: determined in kinobeads assays with mass spectrometry detection of kinases as described previously; endogenous in cells; host or cells: cell lysate
T1 sequence (Q15759 whole entry): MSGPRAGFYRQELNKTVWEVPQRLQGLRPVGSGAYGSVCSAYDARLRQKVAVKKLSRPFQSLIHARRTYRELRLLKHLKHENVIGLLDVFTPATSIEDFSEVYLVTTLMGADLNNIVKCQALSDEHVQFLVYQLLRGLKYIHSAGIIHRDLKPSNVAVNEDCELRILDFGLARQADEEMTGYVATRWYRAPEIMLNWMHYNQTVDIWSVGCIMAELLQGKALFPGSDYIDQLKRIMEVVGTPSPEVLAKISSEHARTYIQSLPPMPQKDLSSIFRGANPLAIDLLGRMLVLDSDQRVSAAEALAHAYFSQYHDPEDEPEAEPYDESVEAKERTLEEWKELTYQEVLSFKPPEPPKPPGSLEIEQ
Excerpt: (§1) The protein kinase complement of the human genome (the kinome) was described previously (Manning et al., 2002. Science 298(5600):1912-1934). Sequence accession numbers are defined by the International Protein Index (IPI) (Kersey et al., 2004. Proteomics 4(7):1985-1988).

kinases (kinome) [2] = biological target: T2, kinases (kinome) (Homo sapiens, UniProt O75716); details: MPSK1 (Other), IPI00915837
T2 construct: determined in kinobeads assays with mass spectrometry detection of kinases as described previously; endogenous in cells; host or cells: cell lysate
T2 sequence (O75716 whole entry): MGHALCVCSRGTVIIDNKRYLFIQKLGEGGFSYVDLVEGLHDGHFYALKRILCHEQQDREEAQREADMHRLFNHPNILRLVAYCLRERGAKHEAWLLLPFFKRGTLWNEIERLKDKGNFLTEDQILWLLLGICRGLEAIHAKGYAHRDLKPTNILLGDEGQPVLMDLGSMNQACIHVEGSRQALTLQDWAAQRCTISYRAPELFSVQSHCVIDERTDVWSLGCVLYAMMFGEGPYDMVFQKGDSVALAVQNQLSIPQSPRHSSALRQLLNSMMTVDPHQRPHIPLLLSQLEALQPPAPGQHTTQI
Excerpt: as §1

kinases (kinome) [3] = biological target: T3, kinases (kinome) (Homo sapiens, UniProt P37173); details: TGFbR2 (TKL), IPI00164934
T3 construct: determined in kinobeads assays with mass spectrometry detection of kinases as described previously; endogenous in cells; host or cells: cell lysate
T3 sequence (P37173 23-567): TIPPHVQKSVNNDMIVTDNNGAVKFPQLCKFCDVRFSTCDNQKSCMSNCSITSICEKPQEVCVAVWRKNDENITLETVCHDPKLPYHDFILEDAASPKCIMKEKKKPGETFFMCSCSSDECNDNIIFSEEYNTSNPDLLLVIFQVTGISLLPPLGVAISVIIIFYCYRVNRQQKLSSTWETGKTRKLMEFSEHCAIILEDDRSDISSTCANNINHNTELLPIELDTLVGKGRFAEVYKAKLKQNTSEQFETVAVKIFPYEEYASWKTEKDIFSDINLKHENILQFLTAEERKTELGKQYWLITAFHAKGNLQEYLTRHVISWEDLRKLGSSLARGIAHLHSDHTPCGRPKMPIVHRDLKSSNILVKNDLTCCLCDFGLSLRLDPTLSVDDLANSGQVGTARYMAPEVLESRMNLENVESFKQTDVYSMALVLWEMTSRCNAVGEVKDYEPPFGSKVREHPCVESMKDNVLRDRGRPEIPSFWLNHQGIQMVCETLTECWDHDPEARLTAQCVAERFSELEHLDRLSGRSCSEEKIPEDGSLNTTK
Excerpt: as §1

kinases (kinome) [4] = biological target: T4, kinases (kinome) (Homo sapiens, UniProt P51617); details: IRAK1 (TKL), IPI00293652
T4 construct: determined in kinobeads assays with mass spectrometry detection of kinases as described previously; endogenous in cells; host or cells: cell lysate
T4 sequence (P51617 whole entry): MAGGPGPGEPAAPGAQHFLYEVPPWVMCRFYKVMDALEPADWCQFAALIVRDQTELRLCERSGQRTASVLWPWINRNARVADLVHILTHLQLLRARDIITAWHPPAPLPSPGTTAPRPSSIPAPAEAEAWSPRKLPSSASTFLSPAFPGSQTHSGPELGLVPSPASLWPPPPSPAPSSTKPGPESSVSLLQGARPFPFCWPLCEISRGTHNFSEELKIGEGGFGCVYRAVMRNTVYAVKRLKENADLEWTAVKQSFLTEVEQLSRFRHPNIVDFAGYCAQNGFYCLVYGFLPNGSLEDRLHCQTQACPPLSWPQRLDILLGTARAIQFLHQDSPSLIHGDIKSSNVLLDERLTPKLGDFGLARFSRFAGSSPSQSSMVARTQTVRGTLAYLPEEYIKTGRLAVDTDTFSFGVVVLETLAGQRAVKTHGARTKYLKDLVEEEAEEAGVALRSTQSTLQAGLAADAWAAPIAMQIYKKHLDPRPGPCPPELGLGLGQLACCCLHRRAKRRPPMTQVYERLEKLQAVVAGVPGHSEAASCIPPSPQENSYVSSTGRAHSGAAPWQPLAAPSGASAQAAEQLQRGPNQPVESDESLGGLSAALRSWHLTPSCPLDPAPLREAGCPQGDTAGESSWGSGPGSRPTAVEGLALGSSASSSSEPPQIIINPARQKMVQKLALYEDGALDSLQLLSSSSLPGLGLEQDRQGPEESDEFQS
Excerpt: as §1

kinases (kinome) [5] = biological target: T5, kinases (kinome) (Homo sapiens, UniProt Q13418); details: ILK (TKL), IPI00013219
T5 construct: determined in kinobeads assays with mass spectrometry detection of kinases as described previously; endogenous in cells; host or cells: cell lysate
T5 sequence (Q13418 1-452): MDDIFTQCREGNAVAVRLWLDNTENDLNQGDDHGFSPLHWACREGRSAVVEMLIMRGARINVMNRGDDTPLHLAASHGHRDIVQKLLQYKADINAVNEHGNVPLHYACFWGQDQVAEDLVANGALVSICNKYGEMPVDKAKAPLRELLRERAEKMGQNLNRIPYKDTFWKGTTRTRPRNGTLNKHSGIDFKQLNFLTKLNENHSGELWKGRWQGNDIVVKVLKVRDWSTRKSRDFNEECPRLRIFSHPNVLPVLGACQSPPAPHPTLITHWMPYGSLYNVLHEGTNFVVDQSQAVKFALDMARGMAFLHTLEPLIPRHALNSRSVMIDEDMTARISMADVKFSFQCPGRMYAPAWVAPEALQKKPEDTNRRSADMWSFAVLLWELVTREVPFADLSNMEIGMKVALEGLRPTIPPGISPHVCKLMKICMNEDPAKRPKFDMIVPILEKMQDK
Excerpt: as §1

kinases (kinome) [6] = biological target: T6, kinases (kinome) (Homo sapiens, UniProt Q15131); details: CDK10 (CMGC), IPI00014873
T6 construct: determined in kinobeads assays with mass spectrometry detection of kinases as described previously; endogenous in cells; host or cells: cell lysate
T6 sequence (Q15131 whole entry): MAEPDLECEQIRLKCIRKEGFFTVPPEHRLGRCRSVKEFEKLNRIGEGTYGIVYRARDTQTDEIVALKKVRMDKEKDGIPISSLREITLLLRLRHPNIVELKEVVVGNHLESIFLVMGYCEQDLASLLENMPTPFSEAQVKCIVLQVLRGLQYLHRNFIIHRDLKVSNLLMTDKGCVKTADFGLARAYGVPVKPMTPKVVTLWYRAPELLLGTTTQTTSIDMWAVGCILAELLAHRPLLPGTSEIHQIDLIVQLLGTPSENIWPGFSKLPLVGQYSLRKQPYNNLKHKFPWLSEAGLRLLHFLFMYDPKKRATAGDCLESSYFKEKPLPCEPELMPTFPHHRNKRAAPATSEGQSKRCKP
Excerpt: as §1

kinases (kinome) [7] = biological target: T7, kinases (kinome) (Homo sapiens, UniProt Q02750); details: MAP2K1 (STE), IPI00219604
T7 construct: determined in kinobeads assays with mass spectrometry detection of kinases as described previously; endogenous in cells; host or cells: cell lysate
T7 sequence (Q02750 whole entry): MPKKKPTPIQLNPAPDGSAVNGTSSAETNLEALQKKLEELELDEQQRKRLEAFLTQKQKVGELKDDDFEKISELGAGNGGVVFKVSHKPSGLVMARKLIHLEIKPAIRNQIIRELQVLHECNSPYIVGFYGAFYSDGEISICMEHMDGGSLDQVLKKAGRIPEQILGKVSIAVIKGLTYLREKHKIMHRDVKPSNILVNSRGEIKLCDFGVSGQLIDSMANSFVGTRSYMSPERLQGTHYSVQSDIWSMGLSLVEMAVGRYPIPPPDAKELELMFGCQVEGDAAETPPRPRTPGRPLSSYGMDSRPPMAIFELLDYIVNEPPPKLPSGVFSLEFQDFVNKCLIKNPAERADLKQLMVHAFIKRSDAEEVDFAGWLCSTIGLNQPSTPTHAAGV
Excerpt: as §1

kinases (kinome) [8] = biological target: T8, kinases (kinome) (Homo sapiens, UniProt Q99570); details: PIK3R4 (Other), IPI00024006
T8 construct: determined in kinobeads assays with mass spectrometry detection of kinases as described previously; endogenous in cells; host or cells: cell lysate
T8 sequence (Q99570 whole entry): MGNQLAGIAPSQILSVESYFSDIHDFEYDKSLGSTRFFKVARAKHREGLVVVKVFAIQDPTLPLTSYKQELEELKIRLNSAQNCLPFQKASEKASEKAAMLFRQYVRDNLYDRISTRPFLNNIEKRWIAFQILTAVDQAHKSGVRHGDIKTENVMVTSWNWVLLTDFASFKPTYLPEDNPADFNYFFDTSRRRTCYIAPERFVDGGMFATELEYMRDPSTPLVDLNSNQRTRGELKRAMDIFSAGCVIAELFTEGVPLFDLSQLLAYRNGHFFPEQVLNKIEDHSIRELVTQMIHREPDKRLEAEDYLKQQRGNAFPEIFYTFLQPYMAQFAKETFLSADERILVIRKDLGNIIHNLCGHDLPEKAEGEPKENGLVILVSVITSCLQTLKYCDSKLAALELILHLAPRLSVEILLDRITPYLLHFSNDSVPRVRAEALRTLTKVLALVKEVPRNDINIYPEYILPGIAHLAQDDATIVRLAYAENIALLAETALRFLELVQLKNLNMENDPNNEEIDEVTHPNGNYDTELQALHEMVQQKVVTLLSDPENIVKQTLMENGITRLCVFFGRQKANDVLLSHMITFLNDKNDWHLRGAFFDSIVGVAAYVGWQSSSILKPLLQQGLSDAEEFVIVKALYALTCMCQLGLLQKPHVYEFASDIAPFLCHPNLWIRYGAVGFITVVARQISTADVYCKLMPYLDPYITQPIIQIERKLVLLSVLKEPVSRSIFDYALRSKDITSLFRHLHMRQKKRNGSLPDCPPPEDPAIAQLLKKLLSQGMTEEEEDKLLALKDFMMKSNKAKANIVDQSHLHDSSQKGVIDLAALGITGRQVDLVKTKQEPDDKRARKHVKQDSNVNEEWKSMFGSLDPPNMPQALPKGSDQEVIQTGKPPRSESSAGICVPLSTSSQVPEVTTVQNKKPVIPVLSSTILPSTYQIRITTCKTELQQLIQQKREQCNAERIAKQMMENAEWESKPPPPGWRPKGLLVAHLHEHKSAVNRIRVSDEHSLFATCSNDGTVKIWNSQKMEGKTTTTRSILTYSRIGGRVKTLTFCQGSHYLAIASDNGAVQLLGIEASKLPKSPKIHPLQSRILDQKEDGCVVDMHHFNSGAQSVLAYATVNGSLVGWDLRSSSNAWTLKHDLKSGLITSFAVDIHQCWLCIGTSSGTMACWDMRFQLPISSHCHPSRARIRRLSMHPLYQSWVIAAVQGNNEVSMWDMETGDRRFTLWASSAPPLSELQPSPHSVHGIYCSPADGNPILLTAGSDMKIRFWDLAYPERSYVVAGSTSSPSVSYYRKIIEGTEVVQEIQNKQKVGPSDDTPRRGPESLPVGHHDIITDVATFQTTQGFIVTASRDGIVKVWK
Excerpt: as §1

kinases (kinome) [9] = biological target: T9, kinases (kinome) (Homo sapiens, UniProt O14976); details: GAK (Other), IPI00298949
T9 construct: determined in kinobeads assays with mass spectrometry detection of kinases as described previously; endogenous in cells; host or cells: cell lysate
T9 sequence (O14976 1-1311): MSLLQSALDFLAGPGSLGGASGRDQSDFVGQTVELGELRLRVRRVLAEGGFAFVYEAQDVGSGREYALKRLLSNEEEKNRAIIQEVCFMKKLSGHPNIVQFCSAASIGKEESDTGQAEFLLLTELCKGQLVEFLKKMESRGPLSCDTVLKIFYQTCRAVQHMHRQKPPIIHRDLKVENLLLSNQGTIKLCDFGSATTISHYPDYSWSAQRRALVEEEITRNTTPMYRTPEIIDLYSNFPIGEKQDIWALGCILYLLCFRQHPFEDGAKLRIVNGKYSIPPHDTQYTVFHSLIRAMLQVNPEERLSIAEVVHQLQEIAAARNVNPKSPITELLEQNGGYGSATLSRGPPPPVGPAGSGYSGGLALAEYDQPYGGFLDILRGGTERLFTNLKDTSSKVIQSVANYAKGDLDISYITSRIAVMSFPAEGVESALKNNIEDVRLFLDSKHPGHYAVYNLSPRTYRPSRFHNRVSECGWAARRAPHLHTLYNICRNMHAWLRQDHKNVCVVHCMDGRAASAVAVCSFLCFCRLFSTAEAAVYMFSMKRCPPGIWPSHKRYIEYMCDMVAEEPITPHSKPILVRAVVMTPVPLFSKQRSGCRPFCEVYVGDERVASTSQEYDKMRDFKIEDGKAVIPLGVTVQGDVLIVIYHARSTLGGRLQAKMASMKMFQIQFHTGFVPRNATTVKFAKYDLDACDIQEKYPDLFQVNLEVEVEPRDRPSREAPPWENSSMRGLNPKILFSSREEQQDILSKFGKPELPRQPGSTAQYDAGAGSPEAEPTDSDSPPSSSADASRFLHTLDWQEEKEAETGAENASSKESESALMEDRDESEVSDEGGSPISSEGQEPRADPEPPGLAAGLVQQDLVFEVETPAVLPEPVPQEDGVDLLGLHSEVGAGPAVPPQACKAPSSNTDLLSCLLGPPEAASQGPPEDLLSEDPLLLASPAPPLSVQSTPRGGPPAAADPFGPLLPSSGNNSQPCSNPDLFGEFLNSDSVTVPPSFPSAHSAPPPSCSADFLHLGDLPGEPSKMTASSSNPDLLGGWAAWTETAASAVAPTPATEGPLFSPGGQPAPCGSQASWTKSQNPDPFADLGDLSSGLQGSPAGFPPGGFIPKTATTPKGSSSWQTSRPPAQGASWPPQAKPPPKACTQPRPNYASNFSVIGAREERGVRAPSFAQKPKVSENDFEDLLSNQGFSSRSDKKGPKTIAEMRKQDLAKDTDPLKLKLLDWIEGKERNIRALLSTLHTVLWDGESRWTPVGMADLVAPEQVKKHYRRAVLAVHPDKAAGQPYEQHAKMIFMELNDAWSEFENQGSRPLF
Excerpt: as §1

kinases (kinome) [10] = biological target: T10, kinases (kinome) (Homo sapiens, UniProt Q8TBX8); details: PIP5K2C (Lipid Kinase), IPI00152303
T10 construct: determined in kinobeads assays with mass spectrometry detection of kinases as described previously; endogenous in cells; host or cells: cell lysate
T10 sequence (Q8TBX8 1-421): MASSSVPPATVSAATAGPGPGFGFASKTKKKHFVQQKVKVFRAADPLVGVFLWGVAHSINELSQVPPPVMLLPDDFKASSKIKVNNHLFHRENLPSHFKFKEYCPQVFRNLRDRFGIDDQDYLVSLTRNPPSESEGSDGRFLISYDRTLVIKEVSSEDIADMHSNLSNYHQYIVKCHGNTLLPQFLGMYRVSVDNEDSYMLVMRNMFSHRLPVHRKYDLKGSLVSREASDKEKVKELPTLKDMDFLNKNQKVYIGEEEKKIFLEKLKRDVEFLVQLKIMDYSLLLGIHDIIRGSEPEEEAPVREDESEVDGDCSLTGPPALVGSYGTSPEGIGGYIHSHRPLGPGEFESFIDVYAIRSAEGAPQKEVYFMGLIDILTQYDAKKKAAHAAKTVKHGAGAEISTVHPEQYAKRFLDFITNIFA
Excerpt: as §1

Measured: IC50

C[C@H]1COCCN1c1nc(-c2ccc(NC(=O)NC3CC3)cc2)cc(-c2ccccc2S(C)(=O)=O)n1 [Example 4, (S)-1-cyclopropyl-3-(4-(2-(3-methylmorpholino)-6-(2-(methylsulfonyl)phenyl)pyrimidin-4-yl)phenyl)urea]
not listed: kinases (kinome) [10]
> 10 µM: all other assays above

C[C@H]1COCCN1c1cc(-c2ccccc2S(C)(=O)=O)nc(-c2ccc(NC(=O)NC3CC3)cc2)n1 [Example 6, (S)-1-cyclopropyl-3-(4-(4-(3-methylmorpholino)-6-(2-(methylsulfonyl)phenyl)pyrimidin-2-yl)phenyl)urea]
> 10 µM: kinases (kinome) [1] | kinases (kinome) [2] | kinases (kinome) [3]

CCNC(=O)Nc1ccc(-c2cc(-c3ccccc3C#N)nc(N3CCOC[C@@H]3C)n2)cc1 [Example 8, (S)-1-(4-(6-(2-cyanophenyl)-2-(3-methylmorpholino)pyrimidin-4-yl)phenyl)-3-ethylurea]
> 10 µM: kinases (kinome) [5]

C[C@H]1COCCN1c1nc(-c2ccc(NC(=O)NC3CC3)cc2)cc(-c2cc(F)ccc2S(C)(=O)=O)n1 [Example 40, (S)-1-cyclopropyl-3-(4-(6-(5-fluoro-2-(methylsulfonyl)phenyl)-2-(3-methylmorpholino)pyrimidin-4-yl)phenyl)urea]
not listed: kinases (kinome) [1] | kinases (kinome) [2]
> 10 µM: all other assays above

C[C@H]1COCCN1c1cc(-c2ccccn2)nc(-c2ccc(NC(=O)NCCO)cc2)n1 [Example 43, (S)-1-(2-hydroxyethyl)-3-(4-(4-(3-methylmorpholino)-6-(pyridin-2-yl)pyrimidin-2-yl)phenyl)urea]
not listed: kinases (kinome) [2] | kinases (kinome) [3]
> 10 µM: all other assays above

C[C@H]1COCCN1c1nc(-c2ccc(NC(=O)NC3CC3)cc2)cc(-c2cccnc2S(C)(=O)=O)n1 [Example 46, (S)-1-cyclopropyl-3-(4-(2-(3-methylmorpholino)-6-(2-(methylsulfonyl)pyridin-3-yl)pyrimidin-4-yl)phenyl)urea]
> 10 µM: kinases (kinome) [3] | kinases (kinome) [4] | kinases (kinome) [7] | kinases (kinome) [10] | kinases (kinome) [8] | kinases (kinome) [9]

C[C@H]1COCCN1c1nc(-c2ccc(NC(=O)N[C@H]3CCC[C@@H]3O)cc2)cc(-c2cc(F)ccc2S(C)(=O)=O)n1 [Example 76, 1-(4-(6-(5-fluoro-2-(methylsulfonyl)phenyl)-2-((S)-3-methylmorpholino)pyrimidin-4-yl)phenyl)-3-((1S,2S)-2-hydroxycyclopentyl)urea]
not listed: kinases (kinome) [1] | kinases (kinome) [6]
> 10 µM: all other assays above
